# In patent publication US20260041704A1, “COMPOSITIONS AND METHODS FOR TREATING SICKLE CELL DISEASE” (Beren Therapeutics P.B.C., priority 2022, published 2026):
# What was measured:
# Assay type in all cases: cell-based, human
# [1] = tested on: RBCs from sickle cell disease patients (SS); experiment: Red blood cell deformability by ektacytometry (LORRCA), RBCs from sickle cell patients
# Description: (§1) Subjects and blood preparation: 17 sickle cell patients (24.1 +/-12.1 years old) and 6 healthy individuals (26 +/−3.9 years old) were included in this study. 12 sickle cell patients were at steady state at the time of inclusion and 5 had vaso-occlusive crisis the day of inclusion. 14 patients were under hydroxyurea therapy. Blood was drawn into EDTA tubes, centrifuged, and plasma and buffy coat were removed and kept until utilization. RBCs were washed in PBS 1X (Phosphate Buffered Saline, 1X Solution) and resuspended at hematocrit 20% either in PBS 1X or in autologous plasma. Then RBCs were incubated for 1 h at 37° C, with 3 or 5 mM 2-HPBCD or vehicle for control condition (Ctrl). The vehicle for control condition was the PBS IX or plasma respectively, i.e., without addition of the 2-HPBCD.
# Red blood cell deformability: RBC deformability was assessed at 37° C, at shear stresses ranging from 0.3 to 30 Pa by laser diffraction analysis (ektacytometry), using a Laser-assisted Optical Rotational Cell Analyzer (LORRCA MaxSis, RR Mechatronics. Hoorn. The Netherlands). 10 μL of RBC suspensions were mixed with 1 ml polyvinylpyrrolidone (PVP: viscosit≈30 cP) and sheared into a Couette system. A laser beam was directed through the samples. The shear stress-induced deformation of RBCs affected the laser beam's diffraction pattern, which was measured by the LORRCA software, and used to calculate an elongation index. A higher elongation index represents greater RBC deformability. The Lineweaver-Burke method was used to calculate the maximum elongation index at infinite shear stress (EImax) and the shear stress required to reach half of this maximum elongation index (SS1/2).
# Statistical analysis: effects of treatments on deformability parameters (EImax and SS1/2) and free hemoglobin concentration were analyzed by using a paired t-test or Wilcoxon test when appropriate. Comparisons of RBC deformability between healthy individuals and patients were achieved using Student's t-test. A p value<0.05 was considered as significant. Analyses were performed with Graphpad Prism 9 software.
# [2] = tested on: RBCs from healthy individuals (AA); experiment: Red blood cell deformability by ektacytometry (LORRCA), RBCs from healthy individuals; conditions: 5 mM 2-HPBCD, 1 h at 37° C, RBCs from healthy controls (AA) in PBS
# Description: as §1, with “The vehicle for control condition was the PBS IX or plasma respectively, i.e., without addition of the 2-HPBCD.” left out
# Red blood cell deformability: RBC deformability was assessed at 37° C, at shear stresses ranging from 0.3 to 30 Pa by laser diffraction analysis (ektacytometry), using a Laser-assisted Optical Rotational Cell Analyzer (LORRCA MaxSis, RR Mechatronics. Hoorn. The Netherlands). […] The shear stress-induced deformation of RBCs affected the laser beam's diffraction pattern, which was measured by the LORRCA software, and used to calculate an elongation index. […]
# Statistical analysis: effects of treatments on deformability parameters (EImax and SS1/2) and free hemoglobin concentration were analyzed by using a paired t-test or Wilcoxon test when appropriate. […]
# [3] = tested on: RBCs from healthy individuals (AA); experiment: Free hemoglobin assay (Drabkin's reagent) in supernatants, RBCs from healthy individuals; conditions: 5 mM 2-HPBCD, 1 h incubation, RBCs from healthy control individuals (AA) in PBS, FIG. 4
# [4] = tested on: RBCs from sickle cell disease patients (SS); experiment: Free hemoglobin assay (Drabkin's reagent) in supernatants, RBCs from sickle cell patients; conditions: 1 h incubation
smiles,measurement,setting,value
"CC(O)COC[C@H]1O[C@@H]2O[C@H]3[C@H](O)[C@@H](O)[C@@H](O[C@H]4[C@H](O)[C@@H](O)[C@@H](O[C@H]5[C@H](O)[C@@H](O)[C@@H](O[C@H]6[C@H](O)[C@@H](O)[C@@H](O[C@H]7[C@H](O)[C@@H](O)[C@@H](O[C@H]8[C@H](O)[C@@H](O)[C@@H](O[C@H]1[C@H](O)[C@H]2O)O[C@@H]8COCC(C)O)O[C@@H]7COCC(C)O)O[C@@H]6COCC(C)O)O[C@@H]5COCC(C)O)O[C@@H]4COCC(C)O)O[C@@H]3COCC(C)O (stereo partly drawn) [2-HPBCD, 2-hydroxypropyl-β-cyclodextrin]",effect on deformability of SCD RBCs,[1]; 3 mM or 5 mM 2-HPBCD,increased deformability
same,change of sickle cell RBCs EImax vs control,"[1]; 5 mM 2-HPBCD, 1 h at 37° C, incubated in PBS, p<0.01, FIG. 2A",+12.7%
same,change of sickle cell RBC SS1/2 vs control,"[1]; 5 mM 2-HPBCD, 1 h at 37° C, incubated in PBS, p<0.5 as printed, FIG. 2B",−8.1%
same,effect on SS1/2 in sickle cell RBCs,"[1]; 5 mM 2-HPBCD, 1 h at 37° C, incubated in plasma, FIG. 2D",did not significantly change
same,change of sickle cell RBC EImax vs control,"[1]; 5 mM 2-HPBCD, 1 h at 37° C, incubated in plasma, p<0.01, FIG. 2C",+12.4%
same,effect on SS1/2 (printed SSin),[2]; FIG. 1B,no significant effect
same,change of RBC EImax vs control,"[2]; p<0.05, FIG. 1A",+4.4%
same,effect on free hemoglobin release in the supernatant,[3],no significant effect
same,effect on free hemoglobin released by RBCs,"[4]; 3 mM 2-HPBCD, RBCs from sickle cell disease patients in PBS, p<0.05, FIG. 6A",significantly decreased
same,change of free hemoglobin released by RBCs vs control,"[4]; 5 mM 2-HPBCD, RBCs from sickle cell anemia patients in PBS, p<0.05, FIG. 5A",−6.4%
same,"change of free hemoglobin released by RBCs vs control, patients with low basal free hemoglobin removed","[4]; 5 mM 2-HPBCD, SS RBCs with high basal free hemoglobin content in PBS, p<0.01, FIG. 5B",−29.9%
